In one test the test system is mAb 8C1. Kind of test: MIA: 8C1 reactivity with OspC-derived peptides / alanine scan.
Test [1] relates to B. burgdorferi seropositive serum samples. The test can be described thus: MIA: Lyme disease-positive human serum IgG binding to Ala-substituted 130–150 peptides. Particulars: n = 26 sera, 1:100.

Where no end group is shown, it is not given here.

We go through three substances from publication PMC11960070 (Microbiology Spectrum, 2025).

“130–150: OspCA-derived peptide composed of residues 130-150 (CSETFTNKLKEKHTDLGKEGV; UniProt Q07337 130-150, looked up, fragment)”: the “8C1 reactivity with OspCA peptide” value in the test on mAb 8C1 was “reacted strongly”.

In the case of “D144: 130–150 peptide with single Ala substitution at D144 (CSETFTNKLKEKHTALGKEGV; also: biotinylated, site not given here; UniProt Q07337 130-150, looked up, variant D144A)”, the “Effect of Ala substitution on peptide recognition by human serum samples” value in test [1] is reported as “negatively affected”.

Consider “E140: 130–150 peptide with single Ala substitution at E140 (CSETFTNKLKAKHTDLGKEGV; also: biotinylated, site not given here; UniProt Q07337 130-150, looked up, variant E140A)”, for which the “Effect of Ala substitution on peptide recognition by human serum samples” value in test [1] is “negatively affected”.
